Source: US20010014732A1, “Biocidal proteins” (ZENECA Limited, priority 1991, published 2001)
“And” between values parts separate entries of the source, which are not always exact repeats. Equal entries are not always repeated.

Key:
[1] = tested on: Cercospora beticola (strain E897); test: Anti-fungal activity against foliar disease: in vivo test on sugarbeet plants; details: foliar spray one day prior to inoculation
[2] = tested on: Cercospora beticola strain K897; assay type: cell-based
[3] = tested on: Fusarium culmorum IMI 180420; assay type: cell-based
[4] = tested on: Fusarium oxysporum f.sp. pisi IMI 236441; assay type: cell-based
[5] = tested on: Rhizoctonia solani CBS 207-84; assay type: cell-based
[6] = tested on: Sclerotinia sclerotianum MUCL 30163; assay type: cell-based
[7] = tested on: Septoria nodorum MUCL 30111; assay type: cell-based
[8] = tested on: Trichoderma hamatum MUCL 29736; assay type: cell-based
[9] = tested on: Venturia inaegualis MUCL 15927; assay type: cell-based
plant pathogenic fungi = assay type: cell-based
F culmorum and T hamatum = assay type: cell-based, Fusarium culmorum, Trichoderma hamatum
Experimental: Antifungal activity was measured by microspectrophotometry as previously described (Broekaert, 1990, FEMS Microbiol Lett, 69:55-60). Routinely, tests were performed with 20 μl of a (filter-sterilized) test solution and 80 μl of a suspension of fungal spores (2×10^4 spores/ml) in half strength potato dextrose broth (1/2 PDB). Some tests were performed using a suspension of mycelium fragments in a synthetic growth medium. […] Control microcultures contained 20 μl of sterile distilled water and 80 μl of the fungal suspension.
Unless otherwise stated the test organism was Fusarium culmorum (strain IMI 180420) and incubation was done at 25° C. for 48 hours. Percent growth inhibition is defined as 100 times the ratio of the corrected absorbance of the control microculture minus the corrected absorbance of the test microculture over the corrected absorbance at 595 nm of the control microculture. The corrected absorbance values equal the absorbance at 595 nm of the culture measured after 48 hours minus the absorbance at 595 nm measured after 30 min.
The effect of ions on the antifungal activity of the Rs-AFPs and Rs-nsLTP was examined in more detail. […] The reference medium was the synthetic growth medium described in Example 1 which contains a total of 2.5 mM monovalent cations and 0.1 mM divalent cations. […]

[10] = tested on: Bacillus megaterium ATCC 13632; assay type: cell-based
[11] = tested on: Agrobacterium tumefaciens C58, Alcaligenes eutrophus, Azospirillum brasilense Sp7, Bacillus megaterium ATCC 13632, Erwinia carotovora strain 3912, Escherichia …; assay type: cell-based

Row | Compound | concentration giving 50% control of the disease [1] | IC50 [2] | IC50 [3] | antifungal activity of the reversed-phase HPLC peak in medium A and medium B [3] | IC50 [4] [μg/m1] | IC50 [5] [μg/m1] | IC50 [6] [μg/m1] | IC50 [7] | IC50 [8] [µg/mL] | IC50 [9] | fungi inhibited by more than 50% at concentrations below 100 μg/ml (plant pathogenic fungi) | effect of Ca2+ on antifungal activity (F culmorum and T hamatum; CaCl2 at 5 mM) | effect of K+ on antifungal activity (F culmorum and T hamatum; KCl at up to 50 mM) | concentration causing 50% inhibition of growth [10] [µg/mL] | effect on the other bacteria [11]
1 | CCCCC(O)(Cn1cncn1)c1ccc(Cl)cc1Cl (stereo not shown) [hexaconazole, reference compound] | approximately 7 μM | – | – | – | – | – | – | – | – | – | – | – | – | – | –
2 | Rs-AFP2: antifungal protein from Raphanus sativus (radish) seeds, oligomeric, identical 5 kDa subunits, highly basic (QKLCQRPSGTWSGVCGNNNACKNQCIRLEKARHGSCNYVFPAHKCICYFPC; UniProt P30230 30-80, looked up) | approximately 15 μM | 2 μg/m1 and 3 μg/m1 | 2 µg/mL and 5 µg/mL | active in both medium A and medium B | 2 | >100 | >100 | 15 μg/m1 and 20 μg/m1 | 2 | 25 μg/m1 and >50 μg/m1 | 11 out of 18 | varied from a slight increase in IC50 for F culmorum to complete inactivation for T hamatum | did not affect the antifungal activity | 200 | no effect
